Measured values published in patent US20090118366A1, “ORGANIC COMPOUNDS” (Nabriva Therapeutics Forschungs GmbH, priority 2007, published 2009).

Tested on: cryopreserved primary human hepatocytes
Assay: Metabolic stability in cryopreserved primary human hepatocytes
Type: in vitro ADME
Details: 4 h incubation with human hepatocytes, compound concentration 5 μg/mL, 37° C., LC/MS
Method: The metabolic stability for compounds of the present invention was determined by using cryopreserved primary human hepatocytes. 1×10^6 cells/mL were incubated in the absence and the presence of 5 and 25 μg/mL of the test compounds at 37° C., 5% CO2 for 4 hours, To evaluate the in vitro degradation under assay conditions, a sample of each test compound was incubated also in the absence of hepatocytes. The incubation was stopped by freezing the reaction mixture. After ultrafiltration and washing of the filter with acetonitrile, the sample solution was analyzed for parent compound disappearance or metabolite appearance using LC/MS (ion trap). The metabolic stability value corresponds to the detected parent compound in % after incubation.

Substance | parent compounds found (metabolic stability value) [%]
14-O-{[(1R, 2R, 5S)-5-Amino-2-hydroxy-cyclohexylsulfanyl]-acetyl}-mutilin hydrochloride+(1s, 2S, 5R) diastereomer hydrochloride [Example 2] | 66
14-O-{[(1R, 3S)-3-Amino-cyclohexylsulfanyl]-acetyl}-mutilin hydrochloride and the (1S, S3R) diastereomer hydrochloride thereof | 24
